Measurements reported in patent US20110034373A1, “USE OF AN FGF-21 COMPOUND AND A GLP-1 COMPOUND FOR THE TREATMENT OF OBESITY” (ELI LILLY AND COMPANY, priority 2007, published 2011).

B1: FGF-21: FGF-21 compound of Table 1: human FGF-21, printed as 'human FGF-2 (SEQ ID NO: 1)' (protein, listed as Homo sapiens)
chain: MDSDETGFEHSGLWVSVLAGLLGACQAHPIPDSSPLLQFGGQVRQRYLYTDDAQQTEAHLEIREDGTVGGAADQSPESLLQLKALKPGVIQILGVKTSRFLCQRPDGALYGSLHFDPEACSFRELLLEDGYNVYQSEAHGLPLHLPGNKSPHRDPAPRGPARFLPLPGLPPALPEPPGILAPQPPDVGSSDPLSMVGPSQGRSPSYAS

Tested on: Diet-induced obese (DIO) male C57/B16 mice
Assay: Effect of combination treatment with GLP-1 and FGF-21 on body weight in diet-induced obese mice
Assay type: in vivo
Details: GLP-1 compound 3 nmol/kg/day continuous s.c. infusion (alzet pump), n=8
Procedure: Diet-induced obese (DIO) male C57/B16 mice (Harlan: Va.) maintained on a calorie rich diet (TD95217, Teklad, Madison, Wis.) since weaning are used, DIO is established by ad libitum feeding for at least 7 weeks of a diet consisting of 40% fat, 39% carbohydrate, and 21% protein caloric content (TD95217). Animals are individually housed in a temperature-controlled (24° C.) facility with 12 hour light/dark cycle (lights on 2200) and free access to food (TD95217) and water. After a minimum of 2 weeks acclimation to the facility, the mice are randomized according to their body weight, so each experimental group of animals would have similar body weight.
Body composition of DIO male C57/B16 mice is determined by using QNMR analysis 1 day prior to initiation of treatment. Combination treatment is administered with two delivery methods. A FGF-21 compound (1 mg/kg) is subcutaneously injected once a day and a GLP-1 compound (3 nmol/kg/day) is delivered by continuous subcutaneous infusion with alzet pump. The experimental groups are as follow: One group (“Vehicle”) of mice (n=8) receives PBS (11.4 μL/day) and a daily subcutaneous injection of 0.05 mL/10 g of PBS. Another group (“FGF-21”) of mice (n=8) receives 11.4 μL/day of PBS using the alzet pump and a daily subcutaneous injection of 1 mg/kg of FGF-21. The “GLP-1” group of mice receives 3 nmol/kg/day of a GLP-1 compound through an alzet pump and a daily subcutaneous injection of 0.05 mL/10 g of PBS. The “GLP-1+FGF-21” group of mice receives 3 nmol/kg/day of a GLP-1 compound through an alzet pump and a daily subcutaneous injection of 1 mg/kg of a FGF-21 compound. Injections occur prior to the onset of the dark photoperiod. Starting weight values are measured after implantation of alzet pumps on Day 1. Body weights are recorded in conjunction with daily dosing. Average weight changes compared to starting weights of a particular treatment group, including vehicle, are determined. Average daily weight changes are normalized to average of daily weight change of Vehicle group and are reported in Table 1 (i.e., (Average weight change of Treatment group)−(Average weight change of Vehicle group)). For all treatment groups n=8.
Data in Table 1 represent results where the FGF-21 compound is human FGF-2 (SEQ ID NO: 1) and where the GLP-1 compound is Val^8-Glu^22-Ile^33-Pro^37-Ser^38-Ser^39-Gly^40-Ala^41-Pro^42-Pro^43-Pro^44-Ser^45-GLP-1 (SEQ ID NO: 19).

[1] = Day 1 (starting weight), FGF-21 compound 1 mg/kg s.c. once a day
[2] = Day 5, FGF-21 compound 1 mg/kg s.c. once a day
[3] = Day 10, FGF-21 compound 1 mg/kg s.c. once a day
[4] = Day 15, FGF-21 compound 1 mg/kg s.c. once a day

| Molecule | Average Weight Change Normalized to Vehicle Treated Mice [1] [g] | Average Weight Change Normalized to Vehicle Treated Mice [2] [g] | Average Weight Change Normalized to Vehicle Treated Mice [3] [g] | Average Weight Change Normalized to Vehicle Treated Mice [4] [g] |
| --- | --- | --- | --- | --- |
| Val^8-Glu^22-Ile^33-Pro^37-Ser^38-Ser^39-Gly^40-Ala^41-Pro^42-Pro^43-Pro^44-Ser^45-GLP-1 (HVEGTFTSDVSSYLEEQAAKEFIAWLIKGGPSSGAPPPS) | 0 | -1.01 | -1.99 | -2.50 |
| B1 | 0 | -0.45 | -1.94 | -2.85 |
